# Earlier results as cited in PMC13291975, “Brighter NIR Bioluminescence System for Mammalian Cell Bioimaging Based on Engineered Railroadworm Luciferase and 6′-Aminoluciferin Analogues” (Chemical & Biomedical Imaging, 2026).
# Target: T1, Phrixotrix hirtus railroadworm red-emitting luciferase (PxRE; RE-WT) (Phrixothrix hirtus, UniProt Q9U4U7)
# T1 construct: N-terminal His-tag, pCold vector, expressed in E. coli BL21-DE3, Ni-agarose purified
# Test: bioluminescence peak intensity, Lineweaver-Burk
# Format: biochemical
# Settings: read-out: K M LH2; ATP/MgSO4, 0.1 M Tris-HCl pH 8.0; kcat in relative luminometer counts; error not given, value possibly from the authors' earlier work; the text says 'Previously, we showed'
# Source text: bioluminescence peak intensity, Lineweaver-Burk on Phrixotrix hirtus railroadworm red-emitting luciferase (PxRE; RE-WT)
# T1 sequence (Q9U4U7 entry or part of it): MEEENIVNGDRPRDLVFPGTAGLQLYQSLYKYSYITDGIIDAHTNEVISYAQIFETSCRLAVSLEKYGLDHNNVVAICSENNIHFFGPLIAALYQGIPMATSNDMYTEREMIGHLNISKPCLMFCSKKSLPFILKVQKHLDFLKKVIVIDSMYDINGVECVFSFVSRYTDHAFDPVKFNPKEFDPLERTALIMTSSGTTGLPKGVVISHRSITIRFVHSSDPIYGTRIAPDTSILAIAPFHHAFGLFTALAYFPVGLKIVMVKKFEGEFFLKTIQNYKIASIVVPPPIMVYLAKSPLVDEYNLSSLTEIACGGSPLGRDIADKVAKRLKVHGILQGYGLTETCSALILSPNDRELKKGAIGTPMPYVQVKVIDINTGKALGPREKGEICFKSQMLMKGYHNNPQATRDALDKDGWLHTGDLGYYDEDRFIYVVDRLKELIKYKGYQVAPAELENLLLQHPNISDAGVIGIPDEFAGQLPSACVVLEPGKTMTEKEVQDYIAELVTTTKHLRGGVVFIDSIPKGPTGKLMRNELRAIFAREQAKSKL
compound,measurement,value
"O=C(O)[C@H]1CSC(c2nc3ccc(O)cc3s2)=N1 [LH2, D-luciferin]",Km,7 µM
